For 14 compounds, logP results are on record in the SangsterLogP compilation.

This data set is described as follows: method code SF-HPLC, from DOI: 10.1002/jps.2600810814, PMID: 1403725.
With `CCCN(C)N=O`, the logP was 0.61.

Compound `CCCCN(C)N=O` yielded a logP of 1.12.

`CN(C)N=O` showed a logP of -0.38.

Turning to `CC(C)N(N=O)C(C)C`, the logP was found to be 1.48.

In the case of `CCN(CC)N=O`, the logP stood at 0.61.

For `CCCCN(CC)N=O`, the logP is 1.67.

Compound `CCCN(CCC)N=O` displayed a logP of 1.61.

As for `CN(N=O)C(C)(C)C`, the log partition coefficient (logP) was 0.86.

The compound `CC(C)CN(CC(C)C)N=O` yielded a logP of 2.39.

The compound `CCCCCN(CCCCC)N=O` yielded a logP of 3.91.

`CCCCN(CCCC)N=O` came in with a logP of 2.73.

`CCN(N=O)C(C)C` returned a logP of 1.

Consider `CCN(C)N=O`, for which the logP is 0.08.

The compound `CCCCN(CCC)N=O` gave a logP of 2.13.

In general, logP refers to the decadic logarithm of the partition coefficient of the neutral form, usually between octanol and water.
